According to patent US6812246B2, “Aminoflavone compounds, compositions, and methods of use thereof” (The United States of America as represented by the …, priority 2000, dated 2004):
≈ marks a conversion by molar mass, not a printed value. Where two headings read alike, the source gives them in different places.

Assays:
[1] = Akama et al., cited from earlier work
[2] = Visual solubility evaluation in buffer at fixed concentration of 5 mg/mL; type: physicochemical; details: for solubility: aqueous buffer, water solubility determined visually at fixed concentration of 5 mg/mL
Experimental: This Example illustrates the desirable solubility characteristics of the aminoflavone compounds of the present invention. In Table 2 below, the water solubility of compounds 1a-d of Table 1 are set forth at different pH with a citrate or phosphate buffer, as indicated. Solubility was determined visually at a fixed concentration of 5 mg/mL.

[3] = test system: panel of 60 different human tumor cell lines; experiment: NCI 60 cell-line human tumor screen (sulforhodamine B, 48 hour incubation); type: cell-based; details: FIG. 1B; several human cancer cell lines, particularly breast (MCF7), ovarian (OVCAR-5), renal (CAKI-1), colon (SW-620)
Experimental: The NCI screen consists of a panel of 60 different human tumor cell lines against which compounds are tested over a defined range of concentrations to determine the relative degree of growth inhibition or cytotoxicity against each cell line. The design and operation of the screen is such that for each compound tested, both the absolute and relative sensitivities of individual cell lines comprising the screen are sufficiently reproducible that a characteristic profile or “fingerprint” of cellular response is generated. Compounds that are active in the NCI screen show pronounced differential tumor growth-inhibitory and/or cytotoxic effects to the diverse cell lines comprising the 60 cell-line panel. The degree of differential response between the most and least sensitive lines typically may be relatively small (e.g., 2-10 fold), or occasionally as great as 3-4 orders of magnitude. […]
In the screening assay, each agent is tested over a broad concentration range against every cell line in the panel. […] Test compounds are evaluated at five 10-fold dilutions. […] Optical densities are measured on automated plate readers, followed by computerized data acquisition, processing, storage, and availability for display-and analysis. […]

[4] = pH 3, citrate buffer, read-out: Visual solubility, pH 3
[5] = pH 5, citrate buffer, read-out: Visual solubility, pH 5
[6] = pH 7, phosphate buffer, read-out: Visual solubility, pH 7
[7] = pH 3, citrate buffer, 5 mg/mL, visual

Structure (SMILES) | solubility in ethanol ([1]; ethanol, J. Med. Chem., at 2067) [µg/mL] | solubility in water ([1]; water, J. Med. Chem., 41, 2056-2067 (1998)) | solubility [2, 4] [µg/mL] | solubility [2, 5] [µg/mL] | solubility [2, 6] [µg/mL] | solubility at pH 3 (text summary of Table 2) [2, 7] | tumor growth-inhibiting activity (GI50 mean-graph) [3] | solubility at pH 5 (text summary of Table 2) ([2]; pH 5, citrate buffer, 5 mg/mL, visual)
Nc1ccc(-c2cc(=O)c3c(N)c(F)cc(F)c3o2)cc1F [5,4′-diamino-6,8,3′-trifluoroflavone] | 1200 (≈ 3.92 mM) | less than 0.2 μg/mL |  |  |  |  |  | 
Br.Br.Br.Cc1c(F)c(N)c2c(=O)cc(-c3ccc(NC(=O)C(N)CCCNC(=N)N)c(F)c3)oc2c1F (stereo not shown) [Compound 1b, 5-amino-2-[4-[[2-amino-5-guanidinopentanoyl]amino]-3-fluorophenyl]-6,8-difluoro-7-methyl-4H-1-benzopyran-4-one, trihydrobromide] |  |  | > 5000 | < 5000 | < 5000 | fully soluble |  | 
Cc1c(F)c(N)c2c(=O)cc(-c3ccc(NC(=O)[C@@H](N)CCCCN)c(F)c3)oc2c1F [Compound 1a, 5-amino-6,8-difluoro-2-(3-fluoro-4-[(L-lysyl)amino]phenyl]-7-methyl-4H-1-benzopyran-4-one] |  |  | > 5000 | < 5000 | < 5000 | fully soluble | demonstrated tumor growth-inhibiting activity | 
Cc1c(F)c(N)c2c(=O)cc(-c3ccc(NC(=O)CN(C)C)c(F)c3)oc2c1F [Compound 1c, 5-amino-6,8-difluoro-7-methyl-2-[4-(dimethylamino)acetamido-3-fluorophenyl]-4H-1-benzopyran-4-one] |  |  | < 5000 | < 5000 | < 5000 |  |  | 
Cc1c(F)c(NC(=O)CN(C)C)c2c(=O)cc(-c3ccc(NC(=O)CN(C)C)c(F)c3)oc2c1F [Compound 1d, 6,8-difluoro-7-methyl-5-(dimethylamino)acetamido-2-[4-(dimethylamino)acetamido-3-fluorophenyl]-4H-1-benzopyran-4-one] |  |  | > 5000 | > 5000 | < 5000 | fully soluble |  | fully soluble
